Assay: Viscometric properties (oscillatory rheology, shear sweep)
Assay type: physicochemical
Protocol: The molecular weight of trisilanol i-octyl POSS® at 1184 g/mol, is generally equivalent to that of common silicone oligomers. In comparison to telechelic silanol polydimethylsiloxanes, trisilanol i-octylPOSS is unique in terms of its high viscosity (27 Pa·s at 24° C.) relative to the 4.3 wt % of silanol it contains. Telechelic silanol polydimethylsiloxanes and diphenyl-siloxane-dimethyl-siloxane copolymers with equivalent silanol contents are generally low viscosity fluids
Oscillatory rheology was utilized to determine the viscometric characteristics of i-octylPOSS trisilanol versus mixtures containing solid hemostatic agents suspended in the carrier fluid, i-octylPOSS trisilanol. The solid hemostatic agents utilized for these tests were chitin and kaolin. Shear sweep measurements of viscosity at 37° C. over the range of 0.01-100 s^−1 were deemed adequate to assess reproducibility of the hemostat agent mixtures.
It is non-Newtonian attributes are evidenced by a reduction of viscosity relative to shear rate. The shear thinning behavior is useful as it enables the hemostat to be syringable or pourable yet to remain in place once deposited onto a wound. Desirably, the viscosity of this hemostat can be controlled simply by increasing or decreasing the amount of kaolin incorporation.
A similar viscosity test was performed using chitin as the solid hemostatic additive.

**Q.** For “trisilanol hepta-isoOctyl POSS [i-octylPOSS trisilanol]”, which viscosity (at 24° C.) is on record?
**A.** Its viscosity is 27 Pa·s.

**Q.** And the “rheological behaviour (viscosity relative to shear rate)” value (shear sweep 0.01-100 s^−1 at 37° C.)?
**A.** Its value is “Newtonian fluid”.
